Values quoted from earlier work, collected in patent publication US8101779B2, “Enantioselective synthesis of (+) and (–)-2-[1-(2,6-dichlorophenoxy)-ethyl]-1,3-diazacyclopent-2-ene” (University of Kentucky Research Foundation, priority 2008, dated 2012).

SMILES | dose at which the effect of lowering mean arterial blood pressure is apparent (effect apparent at doses as low as) | dose at which lowering of mean arterial blood pressure is not seen (effect not seen even at doses as high as)
CC(Oc1c(Cl)cccc1Cl)C1=NCCN1 (single isomer, unassigned; (+)) [(+)-lofexidine, (+) 2-[1-(2,6-dichlorophenoxy)-ethyl]1,3-diazacyclopent-2-ene] | ≤ 0.561 µg/kg | 
CC(Oc1c(Cl)cccc1Cl)C1=NCCN1 (single isomer, unassigned; (-)) [(−)-lofexidine, (−)-2-[1-(2,6-dichlorophenoxy)-ethyl]-1,3-diazacyclopent-2-ene] |  | > 10 µg/kg
